Measurements published in ChEMBL document CHEMBL1201862, “PubChem BioAssay data set” (2004).
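Each compound was tested at five concentrations against cells in 96-well plates for 48 hours. GI50 = concentration required for 50% inhibition of growth.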 Calls of active or inactive are those of the source. Cut-off read from the data, not from the text of the source: active = GI50 up to about 1.1 µM and inactive = higher.

Legend:
Test in all cases: DTP human tumour cell line panel, 48 h
HCC 2998 = test system: HCC 2998
SK-OV-3 = test system: SK-OV-3
CCRF-CEM = test system: CCRF-CEM
A498 = test system: A498
MDA-N = test system: MDA-N
HCT-15 = test system: HCT-15
NCI-H226 = test system: NCI-H226
Hs-578T = test system: Hs-578T
SF-539 = test system: SF-539
MOLT-4 = test system: MOLT-4
TK-10 = test system: TK-10
SK-MEL-2 = test system: SK-MEL-2
COLO 205 = test system: COLO 205
UACC-62 = test system: UACC-62
Malme-3M = test system: Malme-3M
ACHN = test system: ACHN
UO-31 = test system: UO-31
CAKI-1 = test system: CAKI-1
HT-29 = test system: HT-29

SMILES	GI50 (HCC 2998)	GI50 (SK-OV-3)	GI50 (CCRF-CEM)	GI50 (A498)	GI50 (MDA-N)	GI50 (HCT-15)	GI50 (NCI-H226)	GI50 (Hs-578T)	GI50 (SF-539)	GI50 (MOLT-4)	GI50 (TK-10)	GI50 (SK-MEL-2)	GI50 (COLO 205)	GI50 (UACC-62)	GI50 (Malme-3M)	GI50 (ACHN)	GI50 (UO-31)	GI50 (CAKI-1)	GI50 (HT-29)
COC(=O)[C@@H]1C[C@@]23CCCN4CC[C@@]5(c6cccc(OC)c6N(C=O)[C@]15CC2)[C@@H]43	> 100 µM (inactive)	> 100 µM (inactive)	> 100 µM (inactive)	> 100 µM (inactive)	> 100 µM (inactive)	> 100 µM	> 100 µM (inactive)	> 100 µM (inactive)	> 100 µM (inactive)	> 100 µM (inactive)	> 100 µM (inactive)	> 100 µM (inactive)	> 100 µM (inactive)	> 100 µM (inactive)	> 100 µM (inactive)	> 100 µM (inactive)	> 100 µM (inactive)	> 100 µM (inactive)	> 100 µM (inactive)
COc1ccc(NS(=O)(=O)c2ccc3ncn(NS(=O)(=O)c4ccc(I)cc4)c(=O)c3c2)cc1	> 100 µM (inactive)	> 100 µM (inactive)	64.7 µM (inactive)	> 100 µM (inactive)	> 100 µM (inactive)	> 100 µM	9.86 µM (inactive)	> 100 µM (inactive)	> 100 µM (inactive)	> 100 µM (inactive)	> 100 µM (inactive)	> 100 µM (inactive)	> 100 µM (inactive)	95.9 µM (inactive)	> 100 µM (inactive)	> 100 µM (inactive)	43.3 µM (inactive)	> 100 µM (inactive)	> 100 µM (inactive)
CNC=O	> 3980 µM (inactive)	> 3980 µM (inactive)	> 10000 µM (inactive)	> 9710 µM (inactive)	> 10000 µM (inactive)	> 10000 µM	> 10000 µM (inactive)	> 10000 µM (inactive)	> 10000 µM (inactive)	> 10000 µM (inactive)	> 10000 µM (inactive)	> 10000 µM (inactive)	> 10000 µM (inactive)	> 8090 µM (inactive)	> 10000 µM (inactive)	> 10000 µM (inactive)	> 10000 µM (inactive)	> 10000 µM (inactive)	> 10000 µM (inactive)
N=C(N)SCc1ccc(Cl)c2ccccc12.O=[N+]([O-])c1c(O)c(Cl)cc(Cl)c1Cl	2.33 µM (inactive)	13.1 µM (inactive)	9.59 µM (inactive)	9.2 µM (inactive)	11.1 µM (inactive)	14.3 µM	12 µM (inactive)	17.9 µM (inactive)	8.65 µM (inactive)	5.09 µM (inactive)	7.67 µM (inactive)	8.95 µM (inactive)	10.6 µM (inactive)	13.5 µM (inactive)	9.1 µM (inactive)	12.5 µM (inactive)	9.98 µM (inactive)	5.57 µM (inactive)	10.2 µM (inactive)
COc1ccc(/C(CCl)=C(\Nc2ccccc2)c2ccc(OC)c(OC)c2)cc1OC	> 100 µM (inactive)	> 100 µM (inactive)	97.9 µM (inactive)	> 100 µM (inactive)	> 100 µM (inactive)	> 100 µM	68.9 µM (inactive)	> 100 µM (inactive)	> 100 µM (inactive)	28.6 µM (inactive)	> 100 µM (inactive)	> 100 µM (inactive)	> 100 µM (inactive)	> 100 µM (inactive)	> 100 µM (inactive)	45.3 µM (inactive)	46.5 µM (inactive)	> 100 µM (inactive)	> 100 µM (inactive)
CC(C)(C)OC(=O)NCC(=O)NC1C/C(=N\O)c2sccc21 (stereo not drawn)	> 100 µM (inactive)	> 100 µM (inactive)	> 100 µM (inactive)	> 100 µM (inactive)	> 100 µM (inactive)	> 100 µM	> 100 µM (inactive)	> 100 µM (inactive)	> 100 µM (inactive)	0.621 µM (active)	> 100 µM (inactive)	> 100 µM (inactive)	> 100 µM (inactive)	> 100 µM (inactive)	> 100 µM (inactive)		> 100 µM (inactive)	> 100 µM (inactive)	> 100 µM (inactive)
CCC(CO)Nc1nc(NCc2ccccc2)c2ncn(C(C)C)c2n1 (stereo not drawn) [(RS)-ROSCOVITINE]	15.3 µM (inactive)	57.8 µM (inactive)	22.6 µM (inactive)	23.9 µM (inactive)	30.3 µM (inactive)	17.9 µM	15 µM (inactive)	4.58 µM (inactive)	12.6 µM (inactive)	28.5 µM (inactive)	24.4 µM (inactive)	20.7 µM (inactive)	15 µM (inactive)	12.8 µM (inactive)	25.7 µM (inactive)	18.8 µM (inactive)	12.4 µM (inactive)	17.4 µM (inactive)	18.8 µM (inactive)
Cc1nc2ccc(F)cc2c2c1CCN2c1ccc(Cl)cc1	13.7 µM (inactive)	29 µM (inactive)	5.82 µM (inactive)	20.9 µM (inactive)	4.25 µM (inactive)	13.1 µM	9.38 µM (inactive)	27.6 µM (inactive)	10.5 µM (inactive)		9.4 µM (inactive)	18.6 µM (inactive)	6.71 µM (inactive)	10.9 µM (inactive)	10.7 µM (inactive)	13.7 µM (inactive)	5.45 µM (inactive)	13.9 µM (inactive)	3.61 µM (inactive)
CCOC(=O)c1cc2c([N+](=O)[O-])c(N)ccc2s1	> 100 µM (inactive)	> 100 µM (inactive)	> 100 µM (inactive)	> 100 µM (inactive)	> 100 µM (inactive)	> 100 µM	> 100 µM (inactive)	> 100 µM (inactive)	> 100 µM (inactive)	> 100 µM (inactive)	> 100 µM (inactive)	> 100 µM (inactive)	> 100 µM (inactive)	> 100 µM (inactive)	> 100 µM (inactive)	> 100 µM (inactive)	> 100 µM (inactive)	> 100 µM (inactive)	> 100 µM (inactive)
COc1ccc(N2C(=O)C3c4[nH]c5ccc(Br)cc5c4C4CCC(C(C)(C)C)CC4C3C2=O)cc1 (stereo not drawn)	> 100 µM (inactive)	> 100 µM (inactive)	> 100 µM (inactive)	> 100 µM (inactive)	> 100 µM (inactive)	> 100 µM	> 100 µM (inactive)	> 100 µM (inactive)	> 100 µM (inactive)	> 100 µM (inactive)	> 100 µM (inactive)	> 100 µM (inactive)	> 100 µM (inactive)	> 100 µM (inactive)	91.8 µM (inactive)	> 100 µM (inactive)		> 100 µM (inactive)	> 100 µM (inactive)
Cc1ccc([S@+]([O-])c2occc2C=O)cc1	14.5 µM (inactive)	13.6 µM (inactive)	1.64 µM (inactive)	17.1 µM (inactive)	4.44 µM (inactive)	3.49 µM	19.4 µM (inactive)	16.4 µM (inactive)	11.4 µM (inactive)	1.79 µM (inactive)	14.3 µM (inactive)	15 µM (inactive)	14.9 µM (inactive)	15.5 µM (inactive)	3.7 µM (inactive)	15.4 µM (inactive)	11.1 µM (inactive)	17.1 µM (inactive)	7.38 µM (inactive)
O/N=C(\CC(O)(C(F)(F)F)C(F)(F)F)c1cccc(Cl)c1	60 µM (inactive)	22.7 µM (inactive)	19.8 µM (inactive)	34 µM (inactive)	37.3 µM (inactive)	32.4 µM	20.8 µM (inactive)	21.5 µM (inactive)	28.6 µM (inactive)	15.5 µM (inactive)	22.3 µM (inactive)	22.7 µM (inactive)	35.6 µM (inactive)	38.9 µM (inactive)	33.7 µM (inactive)	23.8 µM (inactive)		21.5 µM (inactive)	69.2 µM (inactive)
COc1ccc(-c2cc(-c3ccco3)c(C#N)c(=S)n2C2OC(CO)C(O)C(O)C2O)cc1 (stereo not drawn)	25 µM (inactive)	1.57 µM (inactive)	> 100 µM (inactive)	> 100 µM (inactive)	> 100 µM (inactive)	> 100 µM	> 100 µM (inactive)	> 100 µM (inactive)	> 100 µM (inactive)	> 100 µM (inactive)	> 100 µM (inactive)	> 100 µM (inactive)	> 100 µM (inactive)		> 100 µM (inactive)	> 100 µM (inactive)	> 100 µM (inactive)	> 100 µM (inactive)	> 100 µM (inactive)
CC(=O)OCC1=C(C(=O)O)N2C(=O)C(NC(=O)CSc3ccncc3)C2SC1 (stereo not drawn)	> 100 µM (inactive)	> 100 µM (inactive)	> 100 µM (inactive)	> 100 µM (inactive)	> 100 µM (inactive)	> 100 µM	> 100 µM (inactive)	> 100 µM (inactive)	> 100 µM (inactive)	> 100 µM (inactive)		> 100 µM (inactive)	> 100 µM (inactive)	> 100 µM (inactive)	> 100 µM (inactive)	> 100 µM (inactive)	> 100 µM (inactive)	> 100 µM (inactive)	> 100 µM (inactive)
CNC(=O)Nc1nc2cc([N+](=O)[O-])ccc2[nH]1	> 100 µM (inactive)	> 100 µM (inactive)	67.8 µM (inactive)	> 100 µM (inactive)	> 100 µM (inactive)	> 100 µM	> 100 µM (inactive)	> 100 µM (inactive)	> 100 µM (inactive)	> 100 µM (inactive)	> 100 µM (inactive)	21.5 µM (inactive)	> 100 µM (inactive)		> 100 µM (inactive)	> 100 µM (inactive)	> 100 µM (inactive)	61.4 µM (inactive)	> 100 µM (inactive)
